One series deals with yeast HSP90 (Saccharomyces cerevisiae, UniProt P02829). The experiment in a line: Hsp90 ATPase assay (malachite green). The series is classed as biochemical. Here is the method: (§1) For present invention, the ATPase activity of yeast HSP90 was measured using malachite green assay. Formula I compounds for primary antitumoral activity were treated in human colorectal cancer cells (HCT116) showing increased expression levels of HSP90 client protein and cotoxicity IC50 values was measured as a result.

Series [1] concerns human colorectal cancer cells (HCT116). Description: Growth inhibition assay (cytotoxicity) in HCT116. The series is classed as cell-based. The following applies: HCT-116. Here is the method: as §1
The test system of series [2] is A2780 Human ovarian cancer cells. The experiment in a line: In vivo antitumor efficacy, A2780 subcutaneous xenograft. The following applies: 200 mg/kg po qdx5, 2 weeks, A2780 xenograft in female Balb/c nude mice. Here is the method: A2780 Human ovarian cancer cells were established as subcutaneous xenografts by injection of 8×10^6 cells into the flanks of adult female Balb/c nude mice. Mice with established tumors (50-200 mm^3) were selected for study (n=3-6/treatment group). The test compounds were formulated in ethanol-PEG400-DW and administered orally (po) at a dose of 200 mg/kg. The vehicle alone was administered to control groups. Animals were dosed 5 days per week (Monday through Friday) for 2 consecutive weeks. Animals were weighed and tumor size was determined twice weekly by caliper measurements, and tumor volumes were calculated (volume=[l×w^2]/2(mm^3), where l and w refer to the larger and smaller dimensions collected at each measurement). The mean tumor volumes of each group were calculated. The change in mean treated tumor volume was divided by the change in mean control tumor volume, multiplied by 100 and subtracted from 100% to give the tumor growth inhibition for each group.

The nature of series [3]: Mouse pharmacokinetics of prodrug after oral gavage. The series is classed as in vivo, Balb/c male mice. The conditions noted are these: single PO dose 100 mg/kg. Here is the method: Pharmacokinetics test was carried out in order to confirm the change from invented prodrugs to parent compounds in vivo. Balb/c male mice are dosed with a prodrug by oral gavages. A single administration of a prodrug is given and a dose volume of 10 mL/kg is used for PO doses.
Blood samples are collected in lithium heparin coated tubes at 10, 20, 30, 60, 120 min. Plasma is isolated by centrifugation and frozen before analysis. Plasma samples are prepared by liquid-liquid extraction with Ethyl acetate containing internal standard. Quantification is by using a LC-MS/MS method specific to the selected compound. Animals that had been dosed the selected compound were analyzed for prodrug and the parent compound. Pharmacokinetics parameters are calculated using WinNonLinnon compartmental analysis software.

Experimental findings from patent US20120309750A1, “5-MEMBERED HETEROCYCLE DERIVATIVES AND MANUFACTURING PROCESS THEREOF” (ILDONG PHARM CO., LTD., priority 2010, published 2012) are described below.

Chain of yeast HSP90 (P02829 whole entry): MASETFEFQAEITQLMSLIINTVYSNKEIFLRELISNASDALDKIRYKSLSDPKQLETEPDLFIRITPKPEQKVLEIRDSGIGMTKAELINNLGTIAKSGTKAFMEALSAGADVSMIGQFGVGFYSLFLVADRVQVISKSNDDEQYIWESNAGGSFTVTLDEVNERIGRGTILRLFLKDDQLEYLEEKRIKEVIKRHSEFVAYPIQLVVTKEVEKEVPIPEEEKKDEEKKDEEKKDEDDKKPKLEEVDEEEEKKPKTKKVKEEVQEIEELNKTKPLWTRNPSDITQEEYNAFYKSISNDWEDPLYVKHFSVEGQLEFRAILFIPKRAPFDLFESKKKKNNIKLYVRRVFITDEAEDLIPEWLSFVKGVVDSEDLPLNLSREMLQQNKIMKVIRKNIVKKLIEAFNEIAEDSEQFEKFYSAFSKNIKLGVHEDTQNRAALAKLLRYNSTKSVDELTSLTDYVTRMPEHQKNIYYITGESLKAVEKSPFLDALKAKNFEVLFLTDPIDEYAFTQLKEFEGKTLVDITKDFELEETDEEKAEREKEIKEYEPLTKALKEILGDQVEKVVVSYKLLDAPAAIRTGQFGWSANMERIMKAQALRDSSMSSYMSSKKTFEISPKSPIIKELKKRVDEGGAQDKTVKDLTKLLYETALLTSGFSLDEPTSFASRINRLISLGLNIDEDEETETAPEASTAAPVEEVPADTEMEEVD

As a reminder, the IC50 is the concentration that inhibits the measured activity by half. The low end stands for greater potency in that assay, the high end for weaker potency in that assay. For `CCNC(=O)c1noc(-c2cc(C(C)C)c(O)cc2O)c1-c1noc(C)n1` [Compound I-60, 5-(2,4-Dihydroxy-5-isopropylphenyl)-N-ethyl-4-(5-methyl-1,2,4-oxadiazol-3-yl) isoxazole-3-carboxamide], the IC50 (against yeast HSP90; in series [1]) was less than 500 nM throughout. In series [2], the “% TGI” value is reported as 50%.

Consider `CCNC(=O)c1noc(-c2cc(C(C)C)c(O)cc2O)c1-c1cn[nH]c1` [Compound I-103, 5-(2,4-Dihydroxy-5-isopropylphenyl)-N-ethyl-4-(1H-pyrazol-4-yl)isoxazole-3-carboxamide], for which the IC50 (against yeast HSP90; in series [1]) was less than 500 nM throughout.

As to `CCNC(=O)c1noc(-c2cc(C(C)C)c(O)cc2O)c1-c1cnn(CC)c1` [Compound I-104, 5-(2,4-Dihydroxy-5-isopropylphenyl)-N-ethyl-4-(1-ethyl-1H-pyrazol-4-yl)isoxazole-3-carboxamide], the concentration for half-maximal inhibition (IC50) against yeast HSP90 was 500 to 1000 nM; in series [1] it was less than 500 nM.

Regarding `CCNC(=O)c1noc(-c2cc(C(C)C)c(O)cc2O)c1-c1cnn(C(C)C)c1` [Compound I-105, 5-(2,4-Dihydroxy-5-isopropylphenyl)-N-ethyl-4-(1-isopropyl-1H-pyrazol-4-yl)isoxazole-3-carboxamide], the IC50 is 500 to 1000 nM against yeast HSP90 and less than 500 nM in series [1].

Regarding `CCNC(=O)c1noc(-c2cc(C(C)C)c(OC(=O)[C@@H]3CCCN3C(=O)OC(C)(C)C)cc2OC(=O)C2CCCN2C(=O)OC(C)(C)C)c1-c1ccn(C)n1` (stereo partly drawn) [II-8, (2S,2′S)-1-tert-Butyl^′2,2-4-(3-(ethylcarbamoyl)-4-(1-methyl-1H-pyrazol-3-yl)isoxazol-5-yl)-6-isopropyl-1,3-phenylene dipyrrolidine-1,2-dicarboxylate], the “exposure of the active pharmaceutical agent (I-97) relative to the starting dose” value in series [3] was “optimal exposure”.
